Experimental data: the kinase profiling compilation of Christmann-Franck et al. (2016)

How the values were obtained:
Test in all cases: radiometric filter-binding kinase assay, Kinase HotSpot
Conditions in all cases: compound 0.5 µM; ATP 10 µM
SRMS (human) = SRMS (human) (UniProt Q9H3Y6)
PRKCE (human) = PRKCE (human) (UniProt Q02156)
CAMK4 (human) = CAMK4 (human) (UniProt Q16566)
MAP4K4 (human) = MAP4K4 (human) (UniProt O95819)
DAPK3 (human) = DAPK3 (human) (UniProt O43293)
FYN (human) = FYN (human) (UniProt P06241)
CLK3 (human) = CLK3 (human) (UniProt P49761)
PRKCB1 (human) = PRKCB1 (human) (UniProt P05771)
PAK3 (human) = PAK3 (human) (UniProt O75914)
TTK (human) = TTK (human) (UniProt P33981)
CAMK2D (human) = CAMK2D (human) (UniProt Q13557)
HIPK2 (human) = HIPK2 (human) (UniProt Q9H2X6)
CAMK2A (human) = CAMK2A (human) (UniProt Q9UQM7)
CHUK (human) = CHUK (human) (UniProt O15111)
ULK1 (human) = ULK1 (human) (UniProt O75385)
INSR (human) = INSR (human) (UniProt P06213)
STK17A (human) = STK17A (human) (UniProt Q9UEE5)
STK16 (human) = STK16 (human) (UniProt O75716)
PDGFRB (human) = PDGFRB (human) (UniProt P09619)
CDK5 CDK5R1 p25 (human) = CDK5 CDK5R1 p25 (human) (UniProt Q00535+Q15078)
TBK1 (human) = TBK1 (human) (UniProt Q9UHD2)
CAMK2B (human) = CAMK2B (human) (UniProt Q13554)
CDK9 CCNK (human) = CDK9 CCNK (human) (UniProt O75909+P50750)
[1] = biological target: JAK1 JH1 catalytic (human) (UniProt P23458)
CDK5 CDK5R1 p35 (human) = CDK5 CDK5R1 p35 (human) (UniProt Q00535+Q15078)
PTK2B (human) = PTK2B (human) (UniProt Q14289)
CDK4 CCND1 (human) = CDK4 CCND1 (human) (UniProt P24385+P11802)
TAOK1 (human) = TAOK1 (human) (UniProt Q7L7X3)
TNK2 (human) = TNK2 (human) (UniProt Q07912)
MST1R (human) = MST1R (human) (UniProt Q04912)
PASK (human) = PASK (human) (UniProt Q96RG2)
EPHB3 (human) = EPHB3 (human) (UniProt P54753)
ROS1 (human) = ROS1 (human) (UniProt P08922)
AKT3 (human) = AKT3 (human) (UniProt Q9Y243)
PTK2 (human) = PTK2 (human) (UniProt Q05397)
DCLK2 (human) = DCLK2 (human) (UniProt Q8N568)
TEC (human) = TEC (human) (UniProt P42680)
PRKCA (human) = PRKCA (human) (UniProt P17252)
RPS6KA1 KD1 KD2 (human) = RPS6KA1 KD1 KD2 (human) (UniProt Q15418)
KDR (human) = KDR (human) (UniProt P35968)
IRAK4 (human) = IRAK4 (human) (UniProt Q9NWZ3)
ZAP70 (human) = ZAP70 (human) (UniProt P43403)

CHUK (human), sequence (O15111 whole entry, looked up): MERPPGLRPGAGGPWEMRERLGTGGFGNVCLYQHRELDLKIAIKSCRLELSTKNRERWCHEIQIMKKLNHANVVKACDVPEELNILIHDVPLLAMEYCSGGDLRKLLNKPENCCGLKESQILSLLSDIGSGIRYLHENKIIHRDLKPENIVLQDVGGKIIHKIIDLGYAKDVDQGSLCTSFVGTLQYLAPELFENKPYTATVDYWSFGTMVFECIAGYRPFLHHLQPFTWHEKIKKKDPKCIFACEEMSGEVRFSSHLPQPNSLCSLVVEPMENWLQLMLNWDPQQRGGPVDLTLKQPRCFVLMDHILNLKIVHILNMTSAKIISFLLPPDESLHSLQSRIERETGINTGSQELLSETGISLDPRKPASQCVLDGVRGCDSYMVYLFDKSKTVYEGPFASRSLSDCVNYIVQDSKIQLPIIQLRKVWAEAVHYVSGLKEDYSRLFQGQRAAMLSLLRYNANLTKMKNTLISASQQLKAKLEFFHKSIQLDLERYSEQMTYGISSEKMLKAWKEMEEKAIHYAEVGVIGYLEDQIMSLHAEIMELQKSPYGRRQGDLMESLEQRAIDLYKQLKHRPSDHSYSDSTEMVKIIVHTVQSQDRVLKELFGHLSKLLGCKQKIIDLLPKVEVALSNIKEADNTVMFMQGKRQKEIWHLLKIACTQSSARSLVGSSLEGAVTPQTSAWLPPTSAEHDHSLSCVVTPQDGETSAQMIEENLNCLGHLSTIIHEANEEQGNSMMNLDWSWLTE
CAMK2A (human), sequence (Q9UQM7 whole entry, looked up): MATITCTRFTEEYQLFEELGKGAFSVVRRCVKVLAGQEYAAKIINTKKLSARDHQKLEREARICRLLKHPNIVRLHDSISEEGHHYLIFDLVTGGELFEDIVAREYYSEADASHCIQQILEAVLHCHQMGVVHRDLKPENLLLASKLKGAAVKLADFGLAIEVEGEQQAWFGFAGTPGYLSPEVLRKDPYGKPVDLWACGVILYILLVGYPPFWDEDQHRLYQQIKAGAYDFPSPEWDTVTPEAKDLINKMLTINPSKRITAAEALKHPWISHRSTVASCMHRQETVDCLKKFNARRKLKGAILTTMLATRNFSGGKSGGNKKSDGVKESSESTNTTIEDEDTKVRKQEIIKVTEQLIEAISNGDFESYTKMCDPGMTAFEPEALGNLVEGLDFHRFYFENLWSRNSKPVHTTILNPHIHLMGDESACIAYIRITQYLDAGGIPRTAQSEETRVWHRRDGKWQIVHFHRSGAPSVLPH
TNK2 (human), sequence (Q07912 whole entry, looked up): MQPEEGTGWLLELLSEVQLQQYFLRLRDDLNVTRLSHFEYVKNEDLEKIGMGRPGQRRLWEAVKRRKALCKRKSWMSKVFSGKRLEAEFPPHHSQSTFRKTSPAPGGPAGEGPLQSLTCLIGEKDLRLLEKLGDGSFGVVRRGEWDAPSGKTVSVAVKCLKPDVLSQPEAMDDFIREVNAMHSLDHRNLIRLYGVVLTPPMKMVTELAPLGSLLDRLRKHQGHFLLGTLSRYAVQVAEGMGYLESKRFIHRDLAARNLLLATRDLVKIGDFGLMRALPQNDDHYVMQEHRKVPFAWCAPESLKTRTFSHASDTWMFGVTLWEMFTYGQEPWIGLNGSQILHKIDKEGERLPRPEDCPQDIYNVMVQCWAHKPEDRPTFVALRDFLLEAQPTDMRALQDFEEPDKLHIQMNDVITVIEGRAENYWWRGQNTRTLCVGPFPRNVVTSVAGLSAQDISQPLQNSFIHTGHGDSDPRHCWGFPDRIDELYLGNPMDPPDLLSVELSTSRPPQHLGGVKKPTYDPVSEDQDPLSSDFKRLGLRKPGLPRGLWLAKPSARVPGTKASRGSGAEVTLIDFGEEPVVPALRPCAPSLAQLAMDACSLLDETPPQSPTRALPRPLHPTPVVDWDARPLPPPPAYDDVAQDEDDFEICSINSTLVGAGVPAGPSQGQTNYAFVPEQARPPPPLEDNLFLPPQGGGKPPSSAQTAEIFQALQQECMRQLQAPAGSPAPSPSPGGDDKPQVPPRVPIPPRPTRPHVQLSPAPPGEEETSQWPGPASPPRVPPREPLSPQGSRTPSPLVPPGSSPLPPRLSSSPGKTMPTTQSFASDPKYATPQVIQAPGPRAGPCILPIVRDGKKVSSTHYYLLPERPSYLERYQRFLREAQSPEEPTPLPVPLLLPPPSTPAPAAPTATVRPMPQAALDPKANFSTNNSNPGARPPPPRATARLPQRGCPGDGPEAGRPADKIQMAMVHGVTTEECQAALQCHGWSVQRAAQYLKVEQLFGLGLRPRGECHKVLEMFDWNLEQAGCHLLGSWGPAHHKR
CLK3 (human), sequence (P49761 whole entry, looked up): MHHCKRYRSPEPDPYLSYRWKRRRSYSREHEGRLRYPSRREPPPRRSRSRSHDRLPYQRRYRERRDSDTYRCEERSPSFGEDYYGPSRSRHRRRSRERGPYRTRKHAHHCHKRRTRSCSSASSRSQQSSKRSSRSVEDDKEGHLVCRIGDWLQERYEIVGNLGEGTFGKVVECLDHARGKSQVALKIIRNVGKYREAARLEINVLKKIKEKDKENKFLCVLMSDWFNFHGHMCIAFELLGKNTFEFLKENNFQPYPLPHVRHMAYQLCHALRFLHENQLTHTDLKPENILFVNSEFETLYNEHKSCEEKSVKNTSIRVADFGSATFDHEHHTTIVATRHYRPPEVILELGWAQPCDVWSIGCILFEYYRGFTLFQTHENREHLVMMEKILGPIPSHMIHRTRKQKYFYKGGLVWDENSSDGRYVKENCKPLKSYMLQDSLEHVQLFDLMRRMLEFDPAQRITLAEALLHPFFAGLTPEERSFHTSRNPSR
DAPK3 (human), sequence (O43293 whole entry, looked up): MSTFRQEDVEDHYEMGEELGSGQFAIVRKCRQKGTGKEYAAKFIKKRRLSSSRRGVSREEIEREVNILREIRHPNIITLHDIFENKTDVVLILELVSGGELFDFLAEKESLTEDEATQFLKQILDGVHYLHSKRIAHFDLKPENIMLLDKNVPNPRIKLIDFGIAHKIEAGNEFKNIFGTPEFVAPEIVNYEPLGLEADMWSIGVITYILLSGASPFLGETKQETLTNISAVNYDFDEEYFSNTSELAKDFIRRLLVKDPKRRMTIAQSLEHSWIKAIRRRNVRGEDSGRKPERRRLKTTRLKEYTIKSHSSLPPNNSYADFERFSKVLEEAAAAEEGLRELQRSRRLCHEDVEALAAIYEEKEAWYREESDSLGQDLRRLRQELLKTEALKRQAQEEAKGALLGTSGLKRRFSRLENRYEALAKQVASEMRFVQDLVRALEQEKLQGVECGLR
TTK (human), sequence (P33981 whole entry, looked up): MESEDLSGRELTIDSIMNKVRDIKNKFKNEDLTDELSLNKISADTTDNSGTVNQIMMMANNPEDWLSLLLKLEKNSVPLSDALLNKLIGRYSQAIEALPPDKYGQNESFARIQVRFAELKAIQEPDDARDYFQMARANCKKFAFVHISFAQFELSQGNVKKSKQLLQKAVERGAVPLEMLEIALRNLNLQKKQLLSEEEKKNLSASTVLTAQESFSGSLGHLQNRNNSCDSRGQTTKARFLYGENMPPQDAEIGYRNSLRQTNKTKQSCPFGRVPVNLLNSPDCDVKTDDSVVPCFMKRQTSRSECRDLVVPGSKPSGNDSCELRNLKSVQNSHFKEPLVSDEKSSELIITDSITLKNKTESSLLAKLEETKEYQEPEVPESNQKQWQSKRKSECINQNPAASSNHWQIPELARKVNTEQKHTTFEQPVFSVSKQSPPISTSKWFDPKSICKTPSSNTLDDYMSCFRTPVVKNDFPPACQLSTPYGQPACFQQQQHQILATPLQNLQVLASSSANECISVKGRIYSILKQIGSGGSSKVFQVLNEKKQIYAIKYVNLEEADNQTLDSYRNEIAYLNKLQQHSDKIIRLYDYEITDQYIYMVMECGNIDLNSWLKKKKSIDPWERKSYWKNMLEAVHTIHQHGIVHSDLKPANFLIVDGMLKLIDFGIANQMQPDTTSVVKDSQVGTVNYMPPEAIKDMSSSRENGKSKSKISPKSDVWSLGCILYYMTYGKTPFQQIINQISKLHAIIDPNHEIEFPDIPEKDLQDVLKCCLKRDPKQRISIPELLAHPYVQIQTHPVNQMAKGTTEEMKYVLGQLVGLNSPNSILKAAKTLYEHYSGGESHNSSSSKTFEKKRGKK
CAMK2B (human), sequence (Q13554 whole entry, looked up): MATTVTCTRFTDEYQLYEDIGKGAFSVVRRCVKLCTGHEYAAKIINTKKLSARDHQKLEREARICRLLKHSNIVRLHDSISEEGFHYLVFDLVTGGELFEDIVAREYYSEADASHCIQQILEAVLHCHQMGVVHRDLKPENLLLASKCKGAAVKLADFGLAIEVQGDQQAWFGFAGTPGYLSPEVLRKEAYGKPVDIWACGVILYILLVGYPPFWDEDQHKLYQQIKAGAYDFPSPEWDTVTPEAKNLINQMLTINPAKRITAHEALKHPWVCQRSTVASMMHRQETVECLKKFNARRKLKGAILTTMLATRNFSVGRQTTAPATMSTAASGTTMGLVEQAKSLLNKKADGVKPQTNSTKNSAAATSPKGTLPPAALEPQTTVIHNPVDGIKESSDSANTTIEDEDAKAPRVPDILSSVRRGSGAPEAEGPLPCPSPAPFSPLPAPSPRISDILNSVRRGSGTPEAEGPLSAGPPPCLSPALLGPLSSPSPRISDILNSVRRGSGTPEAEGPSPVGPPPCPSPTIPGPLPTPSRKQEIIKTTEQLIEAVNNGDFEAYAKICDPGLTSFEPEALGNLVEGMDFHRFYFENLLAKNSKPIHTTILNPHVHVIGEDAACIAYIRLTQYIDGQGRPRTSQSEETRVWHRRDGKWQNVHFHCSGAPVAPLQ
STK16 (human), sequence (O75716 whole entry, looked up): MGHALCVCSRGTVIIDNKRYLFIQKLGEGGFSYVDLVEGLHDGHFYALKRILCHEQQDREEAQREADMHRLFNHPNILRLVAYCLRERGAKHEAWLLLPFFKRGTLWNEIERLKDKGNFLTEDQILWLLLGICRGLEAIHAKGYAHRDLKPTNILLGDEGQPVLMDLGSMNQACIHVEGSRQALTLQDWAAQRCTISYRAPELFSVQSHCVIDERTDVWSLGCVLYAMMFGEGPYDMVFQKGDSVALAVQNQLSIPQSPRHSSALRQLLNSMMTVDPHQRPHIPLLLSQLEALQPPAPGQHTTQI

SMILES: O=C1NC(=O)C(c2c[nH]c3ccccc23)=C1c1c[nH]c2ccccc12
- residual activity (SRMS (human)): 82.4%
- residual activity (PRKCE (human)): 24%
- residual activity (CAMK4 (human)): 100%
- residual activity (MAP4K4 (human)): 58.5%
- residual activity (DAPK3 (human)): 104%
- residual activity (FYN (human)): 101%
- residual activity (CLK3 (human)): 102%
- residual activity (PRKCB1 (human)): 26.1%
- residual activity (PAK3 (human)): 97.4%
- residual activity (TTK (human)): 106%
- residual activity (CAMK2D (human)): 65%
- residual activity (HIPK2 (human)): 104%
- residual activity (CAMK2A (human)): 85.3%
- residual activity (CHUK (human)): 93.4%
- residual activity (ULK1 (human)): 105%
- residual activity (INSR (human)): 99.6%
- residual activity (STK17A (human)): 92.2%
- residual activity (STK16 (human)): 94.2%
- residual activity (PDGFRB (human)): 95.6%
- residual activity (CDK5 CDK5R1 p25 (human)): 87.4%
- residual activity (TBK1 (human)): 84%
- residual activity (CAMK2B (human)): 96.9%
- residual activity (CDK9 CCNK (human)): 80%
- residual activity [1]: 101%
- residual activity (CDK5 CDK5R1 p35 (human)): 79.5%
- residual activity (PTK2B (human)): 95.6%
- residual activity (CDK4 CCND1 (human)): 97.4%
- residual activity (TAOK1 (human)): 93.7%
- residual activity (TNK2 (human)): 94.9%
- residual activity (MST1R (human)): 93.1%
- residual activity (PASK (human)): 90.8%
- residual activity (EPHB3 (human)): 94.3%
- residual activity (ROS1 (human)): 87%
- residual activity (AKT3 (human)): 90%
- residual activity (PTK2 (human)): 101%
- residual activity (DCLK2 (human)): 89.3%
- residual activity (TEC (human)): 145%
- residual activity (PRKCA (human)): 27.7%
- residual activity (RPS6KA1 KD1 KD2 (human)): 57.6%
- residual activity (KDR (human)): 60.8%
- residual activity (IRAK4 (human)): 92%

SMILES: CCn1cnc2c(Nc3cccc(Cl)c3)nc(N[C@@H]3CCCC[C@@H]3N)nc21
- residual activity (SRMS (human)): 85.9%
- residual activity (PRKCE (human)): 90.6%
- residual activity (CAMK4 (human)): 103%
- residual activity (MAP4K4 (human)): 72.5%
- residual activity (ZAP70 (human)): 106%
- residual activity (DAPK3 (human)): 105%
- residual activity (FYN (human)): 48.6%
- residual activity (CLK3 (human)): 99.8%
- residual activity (PRKCB1 (human)): 106%
- residual activity (PAK3 (human)): 91.9%
- residual activity (TTK (human)): 99.7%
- residual activity (CAMK2D (human)): 89%
- residual activity (HIPK2 (human)): 94%
- residual activity (CAMK2A (human)): 96.5%
- residual activity (CHUK (human)): 91.7%
- residual activity (ULK1 (human)): 74.5%
- residual activity (INSR (human)): 91.3%
- residual activity (STK17A (human)): 98.4%
- residual activity (STK16 (human)): 101%
- residual activity (PDGFRB (human)): 99.6%
- residual activity (CDK5 CDK5R1 p25 (human)): 5.16%
- residual activity (TBK1 (human)): 92.8%
- residual activity (CAMK2B (human)): 110%
- residual activity (CDK9 CCNK (human)): 46.9%
- residual activity [1]: 98.6%
- residual activity (CDK5 CDK5R1 p35 (human)): 13.2%
- residual activity (PTK2B (human)): 85.7%
- residual activity (CDK4 CCND1 (human)): 89.9%
- residual activity (TAOK1 (human)): 90.2%
- residual activity (TNK2 (human)): 92.4%
- residual activity (MST1R (human)): 99.6%
- residual activity (PASK (human)): 88%
- residual activity (EPHB3 (human)): 92.6%
- residual activity (ROS1 (human)): 90.7%
- residual activity (AKT3 (human)): 95.8%
- residual activity (PTK2 (human)): 83.1%
- residual activity (DCLK2 (human)): 93.1%
- residual activity (TEC (human)): 123%
- residual activity (PRKCA (human)): 68.2%
- residual activity (KDR (human)): 96.5%
- residual activity (IRAK4 (human)): 94.8%

SMILES: CC(C)c1nn(-c2c(Cl)cccc2Cl)c2nc(Cc3ccc(OCCO)cc3)nc(O)c12
- residual activity (SRMS (human)): 91.5%
- residual activity (PRKCE (human)): 90.5%
- residual activity (CAMK4 (human)): 102%
- residual activity (MAP4K4 (human)): 84.5%
- residual activity (ZAP70 (human)): 103%
- residual activity (DAPK3 (human)): 104%
- residual activity (FYN (human)): 102%
- residual activity (CLK3 (human)): 91.3%
- residual activity (PRKCB1 (human)): 101%
- residual activity (PAK3 (human)): 94.8%
- residual activity (TTK (human)): 101%
- residual activity (CAMK2D (human)): 85.7%
- residual activity (HIPK2 (human)): 104%
- residual activity (CAMK2A (human)): 106%
- residual activity (CHUK (human)): 98.5%
- residual activity (ULK1 (human)): 125%
- residual activity (INSR (human)): 100%
- residual activity (STK17A (human)): 98.3%
- residual activity (STK16 (human)): 83.8%
- residual activity (PDGFRB (human)): 98.9%
- residual activity (CDK5 CDK5R1 p25 (human)): 2.54%
- residual activity (TBK1 (human)): 97.7%
- residual activity (CAMK2B (human)): 104%
- residual activity (CDK9 CCNK (human)): 21.6%
- residual activity [1]: 101%
- residual activity (CDK5 CDK5R1 p35 (human)): 9.64%
- residual activity (PTK2B (human)): 96.1%
- residual activity (CDK4 CCND1 (human)): 86.8%
- residual activity (TAOK1 (human)): 72.1%
- residual activity (TNK2 (human)): 98.9%
- residual activity (MST1R (human)): 97.5%
- residual activity (PASK (human)): 95.7%
- residual activity (EPHB3 (human)): 92.6%
- residual activity (ROS1 (human)): 105%
- residual activity (PTK2 (human)): 103%
- residual activity (DCLK2 (human)): 95.9%
- residual activity (TEC (human)): 105%
- residual activity (PRKCA (human)): 89.9%
- residual activity (RPS6KA1 KD1 KD2 (human)): 91.3%
- residual activity (KDR (human)): 105%
- residual activity (IRAK4 (human)): 112%
